Assay results taken from ChEMBL document CHEMBL1201862, “PubChem BioAssay data set” (2004).
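Cells were grown in 96-well plates and exposed to each compound for 48 hours at five concentrations; endpoints were interpolated linearly between bracketing concentrations, or set to the highest concentration if not reached. GI50 is the concentration that inhibits growth by half.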 The source made the active and inactive calls. Cut-off read from the data, not from the text of the source: active = GI50 up to about 1.1 µM and inactive = higher.

Tests used:
Experiment in all cases: NCI-60 cell line screen, 48 h
[1] = tested on: HCC 2998
[2] = tested on: UO-31
[3] = tested on: SK-MEL-28
[4] = tested on: NCI-H226
[5] = tested on: M14
[6] = tested on: 786-0
[7] = tested on: SK-MEL-5
[8] = tested on: SR
[9] = tested on: ACHN
[10] = tested on: IGROV-1
[11] = tested on: SF-539
[12] = tested on: A549
[13] = tested on: HOP-92
[14] = tested on: UACC-257
[15] = tested on: SK-OV-3
[16] = tested on: RXF 393
[17] = tested on: CCRF-CEM
[18] = tested on: NCI-H460
[19] = tested on: KM12
[20] = tested on: T47D

Measured: GI50

COc1ccc2c3ccc4c(c3n(C)c2c1)C(=O)c1ccccc1C4=O
inactive: [1] > 100 µM | [2] > 100 µM | [3] > 100 µM | [4] > 100 µM | [5] > 100 µM | [6] 13.4 µM | [7] > 100 µM | [8] > 100 µM | [9] 51.3 µM | [10] > 100 µM | [11] 22.2 µM | [12] 74.5 µM | [13] 80 µM | [14] > 100 µM | [15] 21.6 µM | [16] > 100 µM | [17] > 100 µM

O=C1NC(Cc2ccccc2)C(=O)N2CCCC12 (stereo not drawn)
inactive: [1] > 100 µM | [2] > 100 µM | [3] > 100 µM | [4] > 100 µM | [5] > 100 µM | [6] > 100 µM | [18] > 100 µM | [7] > 100 µM | [8] > 100 µM | [9] > 100 µM | [10] > 100 µM | [11] > 100 µM | [12] > 100 µM | [13] > 100 µM | [14] > 100 µM | [19] > 100 µM | [15] > 100 µM | [16] > 100 µM | [17] > 100 µM

N#CC(/C(=N\NC(N)=S)C(=O)NC1C2CC3CC(C2)CC1C3)c1ccc(Cl)cc1 (stereo not drawn)
inactive: [1] > 100 µM | [2] > 100 µM | [3] > 100 µM | [4] > 100 µM | [5] > 100 µM | [6] > 100 µM | [18] > 100 µM | [7] > 100 µM | [8] > 100 µM | [9] > 100 µM | [10] > 100 µM | [11] > 100 µM | [12] > 100 µM | [13] > 100 µM | [14] > 100 µM | [19] > 100 µM | [15] > 100 µM | [16] > 100 µM | [17] > 100 µM

COC(=O)CN1C(=O)C2(C(=O)OC)OC1(c1ccc([N+](=O)[O-])cc1)C1C(=O)N(c3ccccc3)C(=O)C12 (stereo not drawn)
inactive: [2] > 100 µM | [3] > 100 µM | [4] > 100 µM | [20] > 100 µM | [5] > 100 µM | [6] > 100 µM | [7] > 100 µM | [9] > 100 µM | [10] > 100 µM | [11] > 100 µM | [12] > 100 µM | [14] > 100 µM | [19] > 100 µM | [15] > 100 µM | [16] > 100 µM | [17] > 100 µM

COc1cc(/C=C(\C#N)C(=O)c2ccccc2)cc(OC)c1OC
inactive: [1] > 100 µM | [2] > 100 µM | [3] > 100 µM | [4] > 100 µM | [5] > 100 µM | [6] > 100 µM | [18] > 100 µM | [7] > 100 µM | [8] > 100 µM | [9] > 100 µM | [11] > 100 µM | [12] > 100 µM | [13] 83.4 µM | [14] > 100 µM | [19] > 100 µM | [15] > 100 µM | [16] 29.6 µM | [17] > 100 µM

COc1cc(/C=N/c2nncs2)ccc1O
inactive: [1] > 100 µM | [2] > 100 µM | [3] > 100 µM | [4] > 100 µM | [5] > 100 µM | [6] > 100 µM | [18] > 100 µM | [7] > 100 µM | [8] > 100 µM | [9] > 100 µM | [10] > 100 µM | [11] > 100 µM | [12] > 100 µM | [13] > 100 µM | [14] > 100 µM | [19] > 100 µM | [15] > 100 µM | [16] > 100 µM | [17] > 100 µM

CCCCC(C(=O)CCC(=O)Nc1ccc(Cl)cc1)C(=O)C(C)C (stereo not drawn)
inactive: [1] > 100 µM | [2] > 100 µM | [3] > 100 µM | [4] > 100 µM | [5] > 100 µM | [6] > 100 µM | [18] > 100 µM | [7] > 100 µM | [8] > 100 µM | [9] > 100 µM | [10] > 100 µM | [11] > 100 µM | [12] > 100 µM | [13] > 100 µM | [14] > 100 µM | [19] > 100 µM | [15] > 100 µM | [16] > 100 µM | [17] > 100 µM

N#CC1(C#N)C(c2ccccc2)C=CC12OCCCO2 (stereo not drawn)
inactive: [1] 84.9 µM | [2] 97.3 µM | [3] 27 µM | [4] 78.7 µM | [5] 29.7 µM | [6] 31.9 µM | [18] 42 µM | [7] 53.8 µM | [8] 27 µM | [9] 42.7 µM | [10] 60.5 µM | [11] 21.6 µM | [12] 88.9 µM | [13] 30.5 µM | [14] 27.4 µM | [19] 38.1 µM | [15] > 100 µM | [16] 17 µM | [17] 26.9 µM

COc1cccc(NC(=O)CC(=O)N2N=C(N(CCC#N)c3ccc(Cl)cc3)CC2c2ccccc2)c1 (stereo not drawn)
inactive: [1] > 100 µM | [2] > 100 µM | [3] > 100 µM | [4] > 100 µM | [5] > 100 µM | [6] > 100 µM | [18] > 100 µM | [7] > 100 µM | [8] > 100 µM | [9] > 100 µM | [10] > 100 µM | [11] > 100 µM | [12] > 100 µM | [13] > 100 µM | [14] > 100 µM | [19] > 100 µM | [15] > 100 µM | [16] > 100 µM | [17] > 100 µM

COC(=O)C(CC=O)C(=O)C(=O)Nc1cccc(C(F)(F)F)c1 (stereo not drawn)
inactive: [1] > 100 µM | [2] > 100 µM | [3] > 100 µM | [4] > 100 µM | [5] > 100 µM | [6] > 100 µM | [18] > 100 µM | [7] > 100 µM | [8] > 100 µM | [9] > 100 µM | [10] > 100 µM | [11] > 100 µM | [12] > 100 µM | [13] > 100 µM | [14] > 100 µM | [19] > 100 µM | [15] > 100 µM | [16] > 100 µM | [17] > 100 µM

CC(C)(C)c1ccc(Oc2ccc(C#N)c(C#N)c2)c(C(C)(C)C)c1
inactive: [1] 48.9 µM | [2] 32.7 µM | [3] 51.5 µM | [4] 46.6 µM | [5] 53 µM | [6] 52.6 µM | [18] 28.8 µM | [7] 31.3 µM | [8] 18.7 µM | [9] 34.9 µM | [10] > 89.7 µM | [11] > 93.5 µM | [12] 60.4 µM | [13] 31.8 µM | [14] 29.4 µM | [19] 29.8 µM | [15] > 100 µM | [16] 24.3 µM | [17] 23.2 µM
